# What was measured:
# Assay type in all cases: biochemical
# [1] = molecular target: Pim-1 (Homo sapiens (Human), UniProt P11309); experiment: Pim-1 kinase assay; conditions: 1 mM ATP; read-out: Pim1 IC50
# Method: Supplementation of the STOP buffer with beads and stopping the reactions were done under reduced light. Prior to the stopping reactions STOP buffer with beads was pre-incubated for 1 h in the dark at room temperature. After stopping the reactions, plates were incubated for 1 h in the dark at room temperature before reading on a PHERAstar FS plate reader (BMG Labtech) under reduced light.
# [2] = molecular target: Pim-2 (Homo sapiens (Human), UniProt Q9P1W9); experiment: Pim-2 kinase assay; conditions: 1 mM ATP; read-out: Pim2 IC50
# [3] = molecular target: Pim-3 (Homo sapiens (Human), UniProt Q86V86); experiment: Pim-3 kinase assay; conditions: 1 mM ATP; read-out: Pim3 IC50
# Procedure, shortened: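 AlphaScreen-type assay: […] Pim-3 phosphorylates 0.05 μM biotin-BAD peptide with 1 mM ATP, 1 h at 25 °C, pH 7.5 Tris buffer with MgCl2 and DTT. EDTA stop with phospho-BAD (Ser112) antibody and donor/acceptor beads, 1 h dark incubation before reading.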
# Sequence of Pim-2 (Q9P1W9 whole entry): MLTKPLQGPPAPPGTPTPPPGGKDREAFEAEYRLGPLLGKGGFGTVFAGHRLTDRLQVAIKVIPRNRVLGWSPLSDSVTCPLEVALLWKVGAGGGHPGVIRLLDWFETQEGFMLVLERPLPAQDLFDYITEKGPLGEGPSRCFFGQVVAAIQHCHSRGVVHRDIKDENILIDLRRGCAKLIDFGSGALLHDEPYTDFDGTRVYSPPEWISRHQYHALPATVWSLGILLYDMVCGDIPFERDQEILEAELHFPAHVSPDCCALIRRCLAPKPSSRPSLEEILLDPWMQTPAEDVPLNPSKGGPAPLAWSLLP
# Sequence of Pim-1 (P11309 whole entry): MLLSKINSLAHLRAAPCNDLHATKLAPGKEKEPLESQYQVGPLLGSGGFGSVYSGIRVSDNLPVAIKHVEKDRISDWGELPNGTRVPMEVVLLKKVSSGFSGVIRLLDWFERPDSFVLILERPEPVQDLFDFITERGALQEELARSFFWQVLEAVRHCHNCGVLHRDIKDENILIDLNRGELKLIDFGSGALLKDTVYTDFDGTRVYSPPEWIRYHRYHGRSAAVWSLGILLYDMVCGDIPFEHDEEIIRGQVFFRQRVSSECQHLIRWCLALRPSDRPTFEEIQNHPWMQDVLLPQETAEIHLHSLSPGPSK
Compound,IC50 [1] [nM],IC50 [2] [nM],IC50 [3] [nM]
"N[C@H]1CCCN(c2c(NC(=O)c3csc(-c4c(F)cccc4F)n3)cnc3[nH]ncc23)C1 [Example 35, N-{4-[(3S)-3-aminopiperidin-1-yl]-1H-pyrazolo[3,4-b]pyridin-5-yl}-2-(2,6-difluorophenyl)-1,3-thiazole-4-carboxamide]",> 40,> 2000,> 40
"COc1ccc(F)c(-c2nc(C(=O)Nc3cnc4c(c3N3CCC[C@H](N)C3)CCC4O)c(N)s2)c1F (single isomer, unassigned) [53 (Diastereoisomer 1)]",≤ 100,≤ 100,≤ 100
"COc1ccc(F)c(-c2nc(C(=O)Nc3cnc4c(c3N3C[C@H](C)C[C@H](N)C3)CCC4O)ccc2F)c1F (single isomer, unassigned) [56 (Diastereoisomer 1)]",≤ 100,≤ 100,≤ 100
"CCOc1cc(F)c(-c2nc(C(=O)Nc3cnc4c(c3N3C[C@@H](N)[C@H](O)[C@@H](C)C3)CCC4O)ccc2F)c(F)c1 (single isomer, unassigned) [51 (Diastereoisomer 2)]",≤ 100,≤ 100,≤ 100
"C[C@@H]1C[C@H](N)CN(c2c(NC(=O)c3nc(-c4c(F)cccc4F)sc3N)cnc3c2CCC3O)C1 (single isomer, unassigned) [47 (Diastereoisomer 2)]",≤ 100,≤ 100,≤ 100
"Nc1ncc(-c2c(F)cccc2F)nc1C(=O)Nc1cnc2c(c1N1CCC[C@H](N)C1)CCC2O (single isomer, unassigned) [62 (Diastereoisomer 2)]",≤ 100,100 to 1000,≤ 100
"CC1(O)CCc2c1ncc(NC(=O)c1nc(-c3c(F)cccc3F)sc1N)c2N1CCC[C@H](N)C1 (single isomer, unassigned) [19 (Diastereoisomer 2)]",≤ 100,100 to 1000,≤ 100
"Nc1sc(-c2c(F)cccc2F)nc1C(=O)Nc1cnc2c(c1N1CC[C@@H](O)[C@@H](N)C1)CCC2 (single isomer, unassigned) [Example 26]",≤ 100,> 2000,≤ 100
"COc1ccc(F)c(-c2nc(C(=O)Nc3cnc4c(c3N3C[C@@H](N)[C@H](O)[C@@H](C)C3)CCO4)ccc2F)c1F [Example 74, N-{4-[(3R,4R,5S)-3-Amino-4-hydroxy-5-methylpiperidin-1-yl]-2,3-dihydrofuro[2,3-b]pyridin-5-yl}-6-(2,6-difluoro-3-methoxyphenyl)-5-fluoropyridine-2-carboxamide]",≤ 100,≤ 100,≤ 100
"C[C@H]1CN(c2c(NC(=O)c3nc(-c4c(F)cccc4F)sc3N)cnc3c2CCO3)C[C@@H](N)[C@@H]1O [Example 40, 5-Amino-N-{4-[(3R,4R,5S)-3-amino-4-hydroxy-5-methylpiperidin-1-yl]-2,3-dihydrofuro[2,3-b]pyridin-5-yl}-2-(2,6-difluorophenyl)-1,3-thiazole-4-carboxamide]",≤ 100,≤ 100,≤ 100
"COc1ccc(F)c(-c2nc(C(=O)Nc3cnc4c(c3N3CCC[C@H](N)C3)CCC4O)ccc2F)c1F (single isomer, unassigned) [55 (Diastereoisomer 2)]",≤ 100,≤ 100,≤ 100
"N#CC1CCc2c1ncc(NC(=O)c1nc(-c3c(F)cccc3F)sc1N)c2N1CCC[C@H](N)C1 (single isomer, unassigned) [18 (Diastereoisomer 1)]",≤ 100,100 to 1000,≤ 100
"N[C@H]1CCCN(c2c(NC(=O)c3ccc(F)c(-c4c(F)cccc4F)n3)cnc3c2CCO3)C1 [Example 11, N-{4-[(3S)-3-Aminopiperidin-1-yl]-2,3-dihydrofuro[2,3-b]pyridin-5-yl}-6-(2,6-difluorophenyl)-5-fluoropyridine-2-carboxamide]",≤ 100,100 to 1000,≤ 100
"N[C@H]1CCCN(c2c(NC(=O)c3csc(-c4c(F)cccc4F)n3)cnc3[nH]ccc23)C1 [Example 8, N-{4-[(3S)-3-Aminopiperidin-1-yl]-1H-pyrrolo[2,3-b]pyridin-5-yl}-2-(2,6-difluorophenyl)-1,3-thiazole-4-carboxamide]",≤ 100,> 2000,≤ 100
"Nc1sc(-c2c(F)cccc2F)nc1C(=O)Nc1cnc2c(c1N1CC[C@@H](O)[C@H](N)C1)CCC2 (single isomer, unassigned) [Example 25, 5-Amino-N-{4-[3,4-trans-3-amino-4-hydroxypiperidin-1-yl]-6,7-dihydro-5H-cyclopenta[b]pyridin-3-yl}-2-(2,6-difluorophenyl)-1,3-thiazole-4-carboxamide]",≤ 100,≤ 100,≤ 100
